What was measured:
human OATP1B1 (hOATP1B1) = target: T1, human OATP1B1 (hOATP1B1) (Homo sapiens, UniProt Q9Y6L6); settings: pH 7.4
T1 sequence (Q9Y6L6 1-691): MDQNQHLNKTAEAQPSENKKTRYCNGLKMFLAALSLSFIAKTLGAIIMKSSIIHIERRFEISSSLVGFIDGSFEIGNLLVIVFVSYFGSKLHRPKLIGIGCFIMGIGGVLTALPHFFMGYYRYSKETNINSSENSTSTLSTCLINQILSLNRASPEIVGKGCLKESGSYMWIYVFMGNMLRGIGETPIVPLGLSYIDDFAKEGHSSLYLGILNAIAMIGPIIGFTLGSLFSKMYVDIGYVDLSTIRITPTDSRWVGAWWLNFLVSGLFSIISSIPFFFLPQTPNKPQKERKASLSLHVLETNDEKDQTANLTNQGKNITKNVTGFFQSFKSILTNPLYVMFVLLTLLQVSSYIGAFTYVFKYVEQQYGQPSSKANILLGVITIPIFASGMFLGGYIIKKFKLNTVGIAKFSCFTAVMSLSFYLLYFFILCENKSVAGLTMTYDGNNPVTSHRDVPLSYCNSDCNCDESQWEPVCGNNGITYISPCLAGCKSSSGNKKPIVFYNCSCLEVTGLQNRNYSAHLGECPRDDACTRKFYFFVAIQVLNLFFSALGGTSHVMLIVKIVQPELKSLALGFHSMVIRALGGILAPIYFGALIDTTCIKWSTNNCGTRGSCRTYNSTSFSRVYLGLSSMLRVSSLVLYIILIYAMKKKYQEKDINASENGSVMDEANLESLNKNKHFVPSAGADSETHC
Description: (§1) Cells for experiments were cultured in DMEM medium at 37° C. and 5% C02. Among them, DMEM medium contains 10% fetal calf serum, penicillin-streptomycin solution (100 U/mL and 0.1 mg/mL) and 0.5 mg/mL geneticin. Before the transfer experiment, cells were seeded in a 24-well plate at a density of 4×10^5 cells/well. The transfer experiment can be performed when the cell confluence reaches 80-90%.
(§2) The concentrations of substrates and positive inhibitors for each transporter are as follows.
(§3) Preparation of working solution: Use PBS to prepare a test substance stock solution with a concentration of 6 mM, and then dilute it with PBS in a gradient to 2000 μM, 1000 μM, 200 μM, 100 μM and 20 μM concentration working solution, and dilute the above working solutions of different concentrations to 20 μM, 10 μM, 2 μM, 1 μM and 0.2 μM concentration dosing solutions (Dosing Solution) respectively, so that the final concentrations of the test substance in the test system are 10 μM, 5 μM and 5 μM respectively. μM, 1 μM, 0.5 μM and 0.1 μM.
(§4) Pre-incubation of OATP1B1 and OATP1B3: Aspirate the culture medium from the culture plate, and wash the cells twice with 37° C. pre-warmed TB buffer (pH7.4), 0.5 mL each time. […] Among them, the NC group includes MOCK cells and each transporter cell, and the MOCK cell group is used to calculate the uptake ratio and passive transport amount. […]

human OATP1B3 (hOATP1B3) = target: T2, human OATP1B3 (hOATP1B3) (Homo sapiens, UniProt Q9NPD5); settings: pH 7.4
T2 sequence (Q9NPD5 1-702): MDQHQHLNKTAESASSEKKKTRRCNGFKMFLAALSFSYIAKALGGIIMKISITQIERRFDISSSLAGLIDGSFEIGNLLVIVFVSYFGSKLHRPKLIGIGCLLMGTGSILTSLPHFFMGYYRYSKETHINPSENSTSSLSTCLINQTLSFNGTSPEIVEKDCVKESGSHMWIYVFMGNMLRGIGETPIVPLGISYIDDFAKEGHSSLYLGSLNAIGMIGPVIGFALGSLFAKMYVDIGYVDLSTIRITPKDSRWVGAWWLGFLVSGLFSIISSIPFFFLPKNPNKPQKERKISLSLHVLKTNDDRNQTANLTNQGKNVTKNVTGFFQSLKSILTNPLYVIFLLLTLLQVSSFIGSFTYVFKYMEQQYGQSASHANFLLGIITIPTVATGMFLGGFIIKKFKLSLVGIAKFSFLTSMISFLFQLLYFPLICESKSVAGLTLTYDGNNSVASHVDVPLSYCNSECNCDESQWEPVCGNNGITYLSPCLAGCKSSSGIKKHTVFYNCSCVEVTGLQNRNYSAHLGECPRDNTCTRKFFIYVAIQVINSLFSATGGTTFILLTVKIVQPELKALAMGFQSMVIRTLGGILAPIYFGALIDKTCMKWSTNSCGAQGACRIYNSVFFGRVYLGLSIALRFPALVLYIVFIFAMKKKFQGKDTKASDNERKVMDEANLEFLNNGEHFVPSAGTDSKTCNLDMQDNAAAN
Description: as §1, §2, §3, §4

Hela cells = experiment: Drug susceptibility test of selection antibiotics on HeLa cells; type: cell-based
HepG2 cells = experiment: Drug susceptibility test of selection antibiotics on HepG2 cells; type: cell-based

SMILES: CCCCC(=O)N(Cc1ccc(-c2ccccc2-c2nnn[nH]2)cc1)[C@H](C(=O)O)C(C)C [valsartan]
- uptake ratio of drug substrate (human OATP1B1 (hOATP1B1)): 3.25
- uptake ratio of drug substrate (human OATP1B3 (hOATP1B3)): 6.90

SMILES: COc1ccc(C[C@H](N)C(=O)N[C@H]2[C@@H](O)[C@H](n3cnc4c(N(C)C)ncnc43)O[C@@H]2CO)cc1 [puromycin]
- concentration that could kill all cultured cells (Hela cells): 1 µg/mL
- concentration that could kill all cultured cells (HepG2 cells): 1 µg/mL

SMILES: CN(CC[C@H](N)CC(=O)N[C@H]1C=C[C@H](n2ccc(N)nc2=O)O[C@@H]1C(=O)O)C(=N)N [BSD, Blasticidin]
- concentration that could kill all cultured cells (HepG2 cells): 2 µg/mL
